Reference: paper PMC9636434, “Discovery of small molecule agonists of the Relaxin Family Peptide Receptor 2” (Communications Biology, 2022)
Where “and” joins values, the source holds several entries; their conditions need not be identical. Identical values can stand only once. Like-named read-outs stand apart in the source and are kept apart here.

Tests used:
human RXFP3 = target: T1, human RXFP3 (Homo sapiens, UniProt Q9NSD7); assay: GloSensor cAMP assay in RXFP3 transiently transfected HEK293T cells; format: cell-based; settings: for RLU (cAMP, raw): RXFP3, 0.1 µM isoproterenol, replicates (1)-(4)
T1 construct: host or cells: HEK293T (transient)
T1 sequence (Q9NSD7 1-469): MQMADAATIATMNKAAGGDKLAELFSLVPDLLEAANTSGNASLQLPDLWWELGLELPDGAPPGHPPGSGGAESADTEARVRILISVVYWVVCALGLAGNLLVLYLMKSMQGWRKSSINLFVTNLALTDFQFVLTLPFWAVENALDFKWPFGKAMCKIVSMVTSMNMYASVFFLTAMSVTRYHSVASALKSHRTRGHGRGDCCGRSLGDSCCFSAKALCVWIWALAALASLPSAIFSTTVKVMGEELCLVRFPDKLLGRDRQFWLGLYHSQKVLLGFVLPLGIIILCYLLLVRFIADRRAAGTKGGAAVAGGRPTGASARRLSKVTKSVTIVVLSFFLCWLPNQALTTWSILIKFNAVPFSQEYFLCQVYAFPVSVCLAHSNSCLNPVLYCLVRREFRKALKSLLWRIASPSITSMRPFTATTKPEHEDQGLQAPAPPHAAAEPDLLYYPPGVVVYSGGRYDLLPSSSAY

[1] = Pharmacokinetic study, single 30 mg/kg IP dose, plasma, liver and bone; format: in vivo, mouse; design: levels in plasma, liver, and bone: scale not given here; settings: for Bone concentration / Liver concentration / Plasma concentration / concentration at 2 h / concentration at 12 h / concentration at 0.083 h / concentration at 0.25 h / concentration at 1 h: IP
Description: The concentration of compound in plasma, liver, and long bones was detected using liquid chromatography tandem mass spectrometry (LC-MS/MS). Samples were collected after a single intraperitoneal (IP) administration at 30 mg/kg, a single intravenous (IV) administration at 3 mg/kg, a single oral (PO) administration at 10 mg/kg, and a daily PO administration for 3 consecutive days at 10 mg/kg. The compound was formulated in 75% PEG300 + 25% of 40% aq. HPBCD for IV and PO administration and in 60% Phosal + 40% PEG300 for IP administration. All tissue samples were homogenized in water at a tissue weight to water volume ratio 1:3.
single dose IP administration. a Plasma, b liver and c bone profiles in female mice.
The actual concentration (ng/g) is the detected value (ng/mL) multiplied by 4. Drug
vehicle is 60% Phosal : 40% PEG300. 3 mice were used per time point. Results are
expressed as the mean ± SEM.

vertebrae and femur = assay: Biomechanical testing of L3 vertebrae (compression) and femur (3-point bending); format: in vivo, mouse; settings: for Elastic Modulus (MPa) / Ultimate Stress (MPa) / Yield Stress (MPa): individual mice
From the text: Previously it was established that C57BL/6 J female mice start losing trabecular bone mass naturally after they reach 8 weeks of age, which provides a model to study the anabolic effects of compound on bone metabolism. The use of females provides a test model with low if any basal INSL3 exposure. […] As previously reported, INSL3 induces an increase in Alp in primary human osteoblasts[20] (Supplementary Fig. 11b) while 6641 induces an increase in Osteocalcin expression (Fig. 5b). After micro-CT scanning, these same lumbar spine and femur from 6641- and vehicle-treated mice were utilized for biomechanical testing. The femurs were tested in a 3-point bending test and the L3 vertebrae in a compression test using an ElectroForce 5500 Test Instrument (TA Instruments, New Castle, DE) with a ramp rate of 0.05 mm/sec and support span of 8.1 mm, running […] software version 8.2. Time, force, and displacement were collected for use in the analysis of mechanical and material properties using custom MATLAB codes (MathWorks, Natick, MA). The Moment of Inertia (MoI) was calculated based on the micro-CT measurements. […] Biomechanical material properties in a vertebrae and b femur of vehicle- and compound- treated female mice. 12 and 15 mice were used in the vehicle and compound groups respectively. p = ns (Student's t-test). (1 picture or pasted object on this page, not shown here)

[2] = Time 0.083 h, individual values (1)-(3)
[3] = Time 0.25 h, individual values (1)-(3)
[4] = Time 0.5 h, individual values (1)-(3)
[5] = Time 1 h, individual values (1)-(3)
[6] = Time 2 h, individual values (1)-(3)
[7] = Time 4 h, individual values (1)-(3)
[8] = Time 8 h, individual values (1)-(3)
[9] = Time 12 h, individual values (1)-(3)
[10] = single 30 mg/kg IP, female mice
[11] = Supplementary Figure 15a, L3 vertebrae compression
[12] = Supplementary Figure 15b, femur 3-point bending

## O=C1Nc2ccc(-c3cc(C(F)(F)F)cc(C(F)(F)F)c3)cc2C(=O)N2CCN(C(=O)COc3ccc(OC(F)(F)F)cc3I)C[C@@H]12 [compound 6641]
Human RXFP3; Log [M] -4.52
  RLU (cAMP, raw): 1801.05 RLU and 1842.11 RLU and 1885.55 RLU and 1904.59 RLU
Human RXFP3; Log [M] -5
  RLU (cAMP, raw): 1713.57 RLU and 1782 RLU and 1870.67 RLU and 1664.77 RLU
Human RXFP3; Log [M] -5.52
  RLU (cAMP, raw): 1763.55 RLU and 1915.9 RLU and 1776.65 RLU and 1719.52 RLU
Human RXFP3; Log [M] -6
  RLU (cAMP, raw): 2045.03 RLU and 1694.52 RLU and 1928.99 RLU and 1704.05 RLU
Human RXFP3; Log [M] -6.52
  RLU (cAMP, raw): 1626.68 RLU and 1976 RLU and 1728.44 RLU and 1743.92 RLU
Human RXFP3; Log [M] -7
  RLU (cAMP, raw): 2133.7 RLU and 1895.07 RLU and 2053.37 RLU and 1981.36 RLU
Human RXFP3; Log [M] -7.52
  RLU (cAMP, raw): 1652.87 RLU and 1825.44 RLU and 1426.73 RLU and 1642.75 RLU
Human RXFP3; Log [M] -8
  RLU (cAMP, raw): 1859.96 RLU and 1760.58 RLU and 1940.89 RLU and 1974.81 RLU
Human RXFP3; Log [M] -8.52
  RLU (cAMP, raw): 2192.97 RLU and 1919.63 RLU
Human RXFP3; Log [M] -9
  RLU (cAMP, raw): 1940.02 RLU and 2105.38 RLU and 1999.67 RLU and 2166.54 RLU
Human RXFP3; Log [M] -9.52
  RLU (cAMP, raw): 2103.87 RLU and 2056.3 RLU and 1688.58 RLU
Human RXFP3; Log [M] -10
  RLU (cAMP, raw): 1933.98 RLU and 1927.18 RLU and 2266.97 RLU and 1930.96 RLU
Human RXFP3; Log [M] -10.52
  RLU (cAMP, raw): 1985.33 RLU and 1919.63 RLU and 2191.46 RLU and 1872.07 RLU
Human RXFP3; Log [M] -11
  RLU (cAMP, raw): 2121.99 RLU and 2313.03 RLU and 1878.86 RLU and 1896.98 RLU
Human RXFP3; Log [M] -11.52
  RLU (cAMP, raw): 2326.62 RLU and 1848.66 RLU and 1903.78 RLU and 1954.37 RLU
Human RXFP3; Log [M] -12
  RLU (cAMP, raw): 1756.54 RLU and 2242.81 RLU and 2177.87 RLU and 2001.94 RLU
Human RXFP3; cAMP induced by 0.1 µM isoproterenol
  activation of RXFP3 (cAMP inhibition): does not activate
[1]; [2]
  Bone concentration: 307 ng/g and 205 ng/g and 624 ng/g
  Liver concentration: 1132 ng/g and 1016 ng/g
  Plasma concentration: 42.7 ng/mL and 44.4 ng/mL
[1]; [3]
  Bone concentration: 618 ng/g and 42.7 ng/g and 69 ng/g
  Liver concentration: 1852 ng/g and 1212 ng/g
  Plasma concentration: 135 ng/mL and 133 ng/mL
[1]; [4]
  Bone concentration: 79.8 ng/g and 96 ng/g and 167 ng/g
  Liver concentration: 2324 ng/g and 2784 ng/g
  Plasma concentration: 259 ng/mL and 440 ng/mL
[1]; [5]
  Bone concentration: 204 ng/g and 273 ng/g and 532 ng/g
  Liver concentration: 4720 ng/g and 3880 ng/g
  Plasma concentration: 507 ng/mL and 673 ng/mL
[1]; [6]
  Bone concentration: 346 ng/g and 472 ng/g
  Liver concentration: 10000 ng/g and 4520 ng/g and 5600 ng/g
  Plasma concentration: 819 ng/mL and 1140 ng/mL
[1]; [7]
  Bone concentration: 708 ng/g and 1566 ng/g and 1740 ng/g
  Liver concentration: 15760 ng/g and 16960 ng/g
  Plasma concentration: 2340 ng/mL and 4780 ng/mL and 5300 ng/mL
[1]; [8]
  Bone concentration: 3162 ng/g and 948 ng/g and 3258 ng/g
  Liver concentration: 19080 ng/g and 9320 ng/g and 24920 ng/g
  Plasma concentration: 3040 ng/mL and 3010 ng/mL
[1]; [9]
  Bone concentration: 1716 ng/g and 1458 ng/g
  Liver concentration: 18480 ng/g and 15600 ng/g
  Plasma concentration: 3930 ng/mL and 2630 ng/mL
[1]; female, C57BL/6 J, mouse, bone, ip, 30 mg/kg, Time 2 h, individual values (1)-(3), read-out: Bone concentration
  concentration at 2 h: 492 ng/g
[1]; female, C57BL/6J, mouse, bone, ip, 30 mg/kg, Time 12 h, individual values (1)-(3), read-out: Bone concentration
  concentration at 12 h: 2830 ng/g
[1]; female, C57BL/6J, mouse, liver, ip, 30 mg/kg, Time 0.083 h, individual values (1)-(3), read-out: Liver concentration
  concentration at 0.083 h: 1060 ng/g
[1]; female, C57BL/6J, mouse, liver, ip, 30 mg/kg, Time 0.25 h, individual values (1)-(3), read-out: Liver concentration
  concentration at 0.25 h: 1800 ng/g
[1]; female, C57BL/6J, mouse, liver, ip, 30 mg/kg, Time 1 h, individual values (1)-(3), read-out: Liver concentration
  concentration at 1 h: 4920 ng/g
[1]; female, C57BL/6J, mouse, liver, ip, 30 mg/kg, Time 12 h, individual values (1)-(3), read-out: Liver concentration
  concentration at 12 h: 13600 ng/g
[1]; female, C57BL/6J, mouse, liver, ip, 30 mg/kg, Time 0.5 h, individual values (1)-(3)
  concentration at 0.5 h: 3040 ng/g
[1]; female, C57BL/6J, mouse, liver, ip, 30 mg/kg, Time 4 h, individual values (1)-(3)
  concentration at 4 h: 11000 ng/g
[1]; female, C57BL/6J, mouse, plasma, ip, 30 mg/kg, Time 0.083 h, individual values (1)-(3), read-out: Plasma concentration
  concentration at 0.083 h: 60.9 ng/mL
[1]; female, C57BL/6J, mouse, plasma, ip, 30 mg/kg, Time 0.25 h, individual values (1)-(3), read-out: Plasma concentration
  concentration at 0.25 h: 132 ng/mL
[1]; female, C57BL/6J, mouse, plasma, ip, 30 mg/kg, Time 1 h, individual values (1)-(3), read-out: Plasma concentration
  concentration at 1 h: 627 ng/mL
[1]; female, C57BL/6J, mouse, plasma, ip, 30 mg/kg, Time 2 h, individual values (1)-(3), read-out: Plasma concentration
  concentration at 2 h: 1160 ng/mL
[1]; female, C57BL/6J, mouse, plasma, ip, 30 mg/kg, Time 12 h, individual values (1)-(3), read-out: Plasma concentration
  concentration at 12 h: 2750 ng/mL
[1]; female, C57BL/6J, mouse, plasma, ip, 30 mg/kg, Time 8 h, individual values (1)-(3)
  concentration at 8 h: 2190 ng/mL
[1]; [10]
  duration of stable levels in plasma, liver, and bone: at least 12 h
  levels in plasma, liver, and bone: single/double digit
Vertebrae and femur; 10 mg/kg PO 3 times per week, 8 weeks
  biomechanical properties of vertebrae and femur: no changes
Vertebrae and femur; [11]
  Elastic Modulus (MPa): 153.265 MPa and 132.946 MPa and 187.209 MPa and 254.765 MPa and 121.079 MPa and 235.799 MPa and 193.606 MPa and 184.897 MPa and 170.559 MPa and 170.73 MPa and 159.611 MPa and 225.093 MPa and 77.447 MPa and 155.764 MPa and 159.911 MPa
  Ultimate Stress (MPa): 14.1661 MPa and 20.1523 MPa and 16.2174 MPa and 22.2452 MPa and 21.0001 MPa and 22.5708 MPa and 23.224 MPa and 14.0488 MPa and 8.99 MPa and 16.5244 MPa and 23.9179 MPa and 31.2724 MPa and 15.8471 MPa and 17.3612 MPa and 20.3053 MPa
  Yield Stress (MPa): 13.761 MPa and 16.4161 MPa and 15.4319 MPa and 20.1436 MPa and 20.5667 MPa and 22.2148 MPa and 17.2035 MPa and 13.8315 MPa and 7.519 MPa and 16.2742 MPa and 23.3124 MPa and 30.0585 MPa and 14.6642 MPa and 10.8847 MPa and 20.2754 MPa
Vertebrae and femur; [12]
  Elastic Modulus (MPa): 7398.92 MPa and 8063.16 MPa and 7172.9 MPa and 5490.74 MPa and 6726.89 MPa and 7530 MPa and 6047.64 MPa and 5378.62 MPa and 5004.38 MPa and 6512.17 MPa and 8227.03 MPa and 6891.88 MPa and 7622.53 MPa and 6100.62 MPa and 7209.2 MPa
  Ultimate Stress (MPa): 125.43 MPa and 114.53 MPa and 121.49 MPa and 120.23 MPa and 113.48 MPa and 123.54 MPa and 148.86 MPa and 112.5 MPa and 116.79 MPa and 97.01 MPa and 135.98 MPa and 139.67 MPa and 122.96 MPa and 105.85 MPa and 123.21 MPa
  Yield Stress (MPa): 75.91 MPa and 60.78 MPa and 69.18 MPa and 62.13 MPa and 66.41 MPa and 57.07 MPa and 119.15 MPa and 57.74 MPa and 99.95 MPa and 60.92 MPa and 107.1 MPa and 79.8 MPa and 112.52 MPa and 62.12 MPa and 77.2 MPa
